The text below walks through data of patent publication US5486597A, “Tetrapeptide derivatives and analogues” (James Black Foundation Limited, priority 1990, dated 1996).

Non-standard residues stand in square brackets, D forms with d. Residues, ends and D or L forms follow the SMILES beside them. *: point of attachment. Trp(5-F) = N[C@@H](Cc1c[nH]c2ccc(F)cc12)C(=O)O; 2Nal = N[C@@H](Cc1ccc2ccccc2c1)C(=O)O; Boc = CC(C)(C)OC(=O)*

Type in all cases: cell-based
In test [1] the target is T1, gastrin receptor (Cavia porcellus, UniProt H0VZC5).
T1 construct: Strips of muscle (approximately 2.5 cm by 1 cm) are removed from the proximal area of the stomach; from tissue; host or cells: guinea-pig proximal stomach (fundus) muscle strips
T1 sequence (H0VZC5 1-426): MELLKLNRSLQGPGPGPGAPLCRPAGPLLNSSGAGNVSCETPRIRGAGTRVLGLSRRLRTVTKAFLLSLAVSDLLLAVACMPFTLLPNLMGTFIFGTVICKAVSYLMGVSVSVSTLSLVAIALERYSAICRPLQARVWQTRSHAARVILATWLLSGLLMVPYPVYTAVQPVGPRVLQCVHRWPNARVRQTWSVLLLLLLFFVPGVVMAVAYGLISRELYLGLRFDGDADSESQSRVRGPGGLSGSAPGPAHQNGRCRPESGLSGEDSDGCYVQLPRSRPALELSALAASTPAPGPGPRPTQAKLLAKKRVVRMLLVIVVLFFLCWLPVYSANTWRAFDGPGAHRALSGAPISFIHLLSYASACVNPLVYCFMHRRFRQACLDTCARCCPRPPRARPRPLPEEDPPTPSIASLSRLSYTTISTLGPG
Nature of the test: guinea-pig fundus assay for gastrin activity (stomach muscle strips). The note with it: 10^-8 M devazepide present, 60 minute equilibration, agonist e.g. pentagastrin, standard errors less than 5%. The gist of the method: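 Proximal stomach muscle strips from male Dunkin-Hartley guinea-pigs were mounted on isotonic transducers at 0.35 g in gassed Krebs containing 10^-8 M devazepide to block CCK receptors, with 10 mM KCl added. Test compounds were equilibrated 60 min before cumulative pentagastrin dose-response curves were run.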

In test [2] the target is T2, gastrin receptor (Mus musculus, UniProt P56481).
T2 construct: assayed for gastrin activity using the mouse stomach assay; from tissue; host or cells: isolated mouse stomach
T2 sequence (P56481 1-453): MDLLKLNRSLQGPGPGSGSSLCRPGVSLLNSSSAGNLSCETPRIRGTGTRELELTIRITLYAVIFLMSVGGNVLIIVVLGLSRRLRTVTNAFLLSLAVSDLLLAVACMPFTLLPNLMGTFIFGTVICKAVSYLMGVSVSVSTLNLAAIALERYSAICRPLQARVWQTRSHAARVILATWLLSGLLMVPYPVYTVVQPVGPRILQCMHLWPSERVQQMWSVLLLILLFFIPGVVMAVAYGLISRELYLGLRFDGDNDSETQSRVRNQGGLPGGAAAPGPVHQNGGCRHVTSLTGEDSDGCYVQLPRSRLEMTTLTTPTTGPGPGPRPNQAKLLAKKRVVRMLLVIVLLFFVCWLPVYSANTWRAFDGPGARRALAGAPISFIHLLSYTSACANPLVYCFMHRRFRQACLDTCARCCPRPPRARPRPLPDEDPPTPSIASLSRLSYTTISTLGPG
Put plainly: mouse stomach assay for gastrin activity (isolated stomach, acid secretion). The note with it: for Acid seretion at 10^-5 M test compound, relative to pentagastrin (%): mouse stomach, NS = not significant. As for the experimental part:
The compounds were assayed for gastrin activity using the mouse stomach assay as described by Black, J. W. and Shankley, N. P., Br. J. Pharmacol., 86, 571-579, (1985), and also in the guinea-pig fundus assay, as follows: […]

For test [3], the target named is T3, cholecystokinin receptors (Cavia porcellus, UniProt Q63931).
T3 construct: Isolated, strip preparations were prepared from gall-bladders removed from male Dunkin-Hartley guinea-pigs; from tissue; host or cells: guinea-pig gall-bladder strips
T3 sequence (Q63931 1-430): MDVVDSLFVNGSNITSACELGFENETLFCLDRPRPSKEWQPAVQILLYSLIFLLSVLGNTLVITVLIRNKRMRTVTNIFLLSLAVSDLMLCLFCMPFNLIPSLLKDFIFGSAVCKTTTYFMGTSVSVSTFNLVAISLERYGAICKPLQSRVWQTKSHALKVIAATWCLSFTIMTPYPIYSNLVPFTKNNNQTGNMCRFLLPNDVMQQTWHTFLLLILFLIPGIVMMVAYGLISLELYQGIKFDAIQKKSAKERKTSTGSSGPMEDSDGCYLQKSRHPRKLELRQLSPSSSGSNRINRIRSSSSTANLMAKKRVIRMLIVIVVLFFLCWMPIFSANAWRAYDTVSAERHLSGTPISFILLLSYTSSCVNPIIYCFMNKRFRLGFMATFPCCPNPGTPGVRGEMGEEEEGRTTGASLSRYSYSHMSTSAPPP
Put plainly: CCK-antagonist activity in isolated guinea-pig gall-bladder strip preparations. The note with it: guinea-pig gall-bladder strips; CCK-8 as agonist; test compound incubated for 60 minutes; standard errors less than 5%. The gist of the method: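 Male Dunkin-Hartley guinea-pig gall-bladder strips under 1 g isometric tension in Krebs (0.5 mM Ca²⁺), 37° C, 95% O2/5% CO2, stabilised 90 min. Cumulative CCK-8 concentration-effect curves without and with test compound (60 min preincubation); antagonism expressed as […] by modified competitive analysis.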

The mark [4] stands for this setting: isolated mouse stomach assay, gastrin antagonism, standard errors less than 5%.

Turning to `COc1ccc(CCNC(=O)[C@H](CC(=O)O)NC(=O)[C@H](Cc2ccc3ccccc3c2)NC(=O)[C@H](Cc2c[nH]c3ccccc23)NC(=O)OC(C)(C)C)cc1` [Example 10, N-t-Butyloxycarbonyl-L-tryptophyl-L-3-(2-naphthyl)alanyl-L-aspartyl-(4-methoxy)phenethylamide], the negative logarithm of the KB (pKB) on gastrin receptor [1] was determined as 5.9; in test [3], 7.2. The pKB mouse stomach at gastrin receptor [2] (setting [4]) worked out at 6.0.
As for `CC(C)(C)OC(=O)N[C@@H](Cc1c[nH]c2ccc(F)cc12)C(=O)N[C@@H](Cc1ccc2ccccc2c1)C(=O)N[C@@H](CC(=O)O)C(=O)N[C@@H](Cc1ccccc1)C(N)=O` [Example 18, N-t-Butyloxycarbonyl-5-fluoro-L-tryptophyl-L-3-(2-naphthyl)alanyl-L-aspartyl-L-phenylalaninamide] (Boc-[Trp(5-F)][2Nal]DF-NH2), the Kb at gastrin receptor [1] is 1260 nM; at gastrin receptor [2] (isolated mouse stomach assay, gastrin antagonism, standard errors less than 5%, read-out: pKB mouse stomach (converted)), 1580 nM; in test [3], 631 nM. Moreover, the “Acid seretion at 10^-5 M test compound, relative to pentagastrin (%)” value (“Acid seretion … relative to pentagastrin (%)” below) at gastrin receptor [2] is 54%.
Consider `COc1ccccc1CCNC(=O)[C@H](CC(=O)O)NC(=O)[C@H](Cc1ccc2ccccc2c1)NC(=O)[C@H](Cc1c[nH]c2ccccc12)NC(=O)OC(C)(C)C` [Example 40, N-t-Butyloxycarbonyl-L-tryptophyl-L-3-(2-naphthyl)alanyl-L-aspartyl-2-methoxyphenethylamide], for which the pKB at gastrin receptor [1] turned out to be 5.8; in test [3] it was 7.1. The same compound returned a pKB mouse stomach on gastrin receptor [2] (setting [4]) of 5.2. Moreover, the “Acid seretion … relative to pentagastrin (%)” value at gastrin receptor [2] is given as 22%.
On to `CC(C)(C)OC(=O)N[C@@H](Cc1c[nH]c2ccccc12)C(=O)N[C@@H](Cc1ccc2ccccc2c1)C(=O)N[C@@H](CC(=O)O)C(=O)NCCc1ccc(Cl)c(Cl)c1` [Example 42, N-t-Butyloxycarbonyl-L-tryptophyl-L-3-(2-naphthyl)alanyl-L-aspartyl-3,4-dichlorophenethylamide], for which the pKB on gastrin receptor [1] is given as 5.3; in test [3], 6.0. The same compound yielded a pKB mouse stomach on gastrin receptor [2] (setting [4]) of 5.2. Moreover, the “Acid seretion … relative to pentagastrin (%)” value on gastrin receptor [2] is 30%.
With `CC(C)(C)OC(=O)N[C@@H](Cc1c[nH]c2ccccc12)C(=O)N[C@@H](Cc1ccc2ccccc2c1)C(=O)N[C@@H](CC(=O)O)C(=O)NCCc1ccc(N)cc1` [Example 46, N-t-Butyloxycarbonyl-L-tryptophyl-L-3-(2-naphthyl)alanyl-L-aspartyl-4-aminophenethylamide], the pKB at gastrin receptor [1] came out at 6.0; in test [3], 6.5. The same compound yielded a pKB mouse stomach at gastrin receptor [2] (setting [4]) of 5.6.
On to `CC(C)(C)OC(=O)N[C@@H](Cc1c[nH]c2ccccc12)C(=O)N[C@@H](Cc1ccc2ccccc2c1)C(=O)N[C@@H](CC(=O)O)C(=O)NCCc1ccc(F)cc1` [Example 47, N-t-Butyloxycarbonyl-L-tryptophyl-L-3-(2-naphthyl)alanyl-L-aspartyl-4-fluorophenethylamide], for which the pKB worked out at 5.8 on gastrin receptor [1] and 6.7 in test [3]. Also, on gastrin receptor [2] (setting [4]), the pKB mouse stomach was determined as 5.5. Besides, at gastrin receptor [2], the “Acid seretion … relative to pentagastrin (%)” value turned out to be 25%.
For the compound `CC(C)(C)OC(=O)N[C@@H](Cc1c[nH]c2ccccc12)C(=O)N[C@@H](Cc1ccc2ccccc2c1)C(=O)N[C@H](CC(=O)O)C(=O)NCCc1ccc(F)cc1` [Example 52, N-t-Butyloxycarbonyl-L-tryptophyl-L-3-(2-naphthyl)alanyl-D-aspartyl-4-fluorophenethylamide], the pKB is on record as 5.9 at gastrin receptor [1] and 6.4 in test [3]. On gastrin receptor [2] (setting [4]), this compound came in with a pKB mouse stomach of 5.6. The “Acid seretion … relative to pentagastrin (%)” value at gastrin receptor [2] is on record as 25%.
The corresponding values for `CC(C)(C)OC(=O)N[C@@H](Cc1c[nH]c2ccccc12)C(=O)N[C@@H](Cc1ccc2ccccc2c1)C(=O)N[C@@H](CC(=O)O)C(=O)NCCc1ccccc1F` [Example 54, N-t-Butyloxycarbonyl-L-tryptophyl-L-3-(2-naphthyl)alanyl-L-aspartyl-2-fluorophenethylamide] are 6.2, 6.4, 5.4 and 25%.
For the compound `COc1cccc(CCNC(=O)[C@H](CC(=O)O)NC(=O)[C@H](Cc2ccc3ccccc3c2)NC(=O)[C@H](Cc2c[nH]c3ccccc23)NC(=O)OC(C)(C)C)c1` [Example 56, N-t-Butyloxycarbonyl-L-tryptophyl-L-3-(2-naphthyl)alanyl-L-aspartyl-3-methoxyphenethylamide], the values for the pKB (at gastrin receptor [1]; in test [3]) were 5.5 and 7.2, respectively. The compound also displayed a pKB mouse stomach on gastrin receptor [2] (setting [4]) of 5.6.
Consider `CC(C)(C)OC(=O)N[C@@H](Cc1c[nH]c2ccccc12)C(=O)N[C@@H](Cc1ccc2ccccc2c1)C(=O)N[C@@H](CC(=O)O)C(=O)NCCc1cccc(F)c1` [Example 65, N-t-Butyloxycarbonyl-L-tryptophyl-L-3-(2-naphthyl)alanyl-L-aspartyl-3-fluorophenethylamide], for which the pKB at gastrin receptor [1] worked out at 6.1; in test [3], 6.7. The same compound had a pKB mouse stomach at gastrin receptor [2] (setting [4]) of 5.3.
For the compound “N-t-Butyloxycarbonyl-L-tryptophyl-L-3-(2-naphthyl)alanyl-L-aspartylphenethylamide [Example 2]”, the values for the pKB (at gastrin receptor [1]; in test [3]) were 5.9 and 6.9, respectively. The pKB mouse stomach on gastrin receptor [2] (setting [4]) worked out at 5.6. Moreover, the “Acid seretion … relative to pentagastrin (%)” value at gastrin receptor [2] was 20%.
